From ChEMBL document CHEMBL3997775, “Challenges and Opportunities in the Development of Serine Synthetic Pathway Inhibitors for Cancer Therapy” (J Med Chem, 2017)
Converted amounts (≈) assume the structure as drawn.

System: not listed separately
Experiment: Lipophilicity, logD of the compound
Assay type: physicochemical
Details: octanol/water

Row | SMILES | logD
1 | O=C(COc1cc2[nH]c(C(=O)N[C@H](CO)c3ccc(C(=O)O)cc3)cc2cc1Cl)NCCO | < -1

Molecular target: T1, D-3-phosphoglycerate dehydrogenase (Homo sapiens) (UniProt O43175)
T1 sequence (whole entry): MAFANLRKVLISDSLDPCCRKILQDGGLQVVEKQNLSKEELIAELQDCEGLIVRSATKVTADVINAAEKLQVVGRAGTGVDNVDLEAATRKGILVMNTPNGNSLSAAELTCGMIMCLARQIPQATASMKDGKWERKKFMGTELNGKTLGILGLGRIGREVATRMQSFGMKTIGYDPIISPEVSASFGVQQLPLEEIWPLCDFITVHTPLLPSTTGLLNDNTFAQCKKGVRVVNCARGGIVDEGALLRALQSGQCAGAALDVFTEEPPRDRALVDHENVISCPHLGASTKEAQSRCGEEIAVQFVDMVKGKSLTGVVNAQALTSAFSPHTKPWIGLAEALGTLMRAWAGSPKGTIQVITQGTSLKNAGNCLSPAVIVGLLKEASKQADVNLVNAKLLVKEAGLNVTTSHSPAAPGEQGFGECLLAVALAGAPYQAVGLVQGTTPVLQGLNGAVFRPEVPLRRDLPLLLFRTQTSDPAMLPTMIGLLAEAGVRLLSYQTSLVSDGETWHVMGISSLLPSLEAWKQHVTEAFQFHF
Experiment: Binding affinity to human N- terminal His6-tagged PHGDH (1 to 533 residues) expressed in Escherichia coli Rosetta (DE3) assessed as change in melting temperature by SYPRO orange dye based DSF assay
Details: not given

Row | SMILES | ΔTm
2 | NC(=O)c1ccc(F)c(Cl)c1 | 2.3 °C
3 | Oc1noc2ccccc12 | 2.5 °C
4 | O=C1COc2cc(O)ccc21 | 1.7 °C
5 | Cn1nc(-c2ccccc2)cc1N | 2.2 °C
6 | Nc1cccc(-c2cnco2)c1 | 1.4 °C
7 | COc1ccc(NC(C)=O)cc1Cl | 1.3 °C
8 | Cc1cccc2cc[nH]c12 | 2.4 °C

Molecular target: T2, D-3-phosphoglycerate dehydrogenase (Homo sapiens, UniProt O43175)
T2 sequence (O43175 whole entry): T1 sequence (whole entry)
Experiment: Inhibition of full length PHGDH (unknown origin) using 3-phosphoglycerate as substrate incubated for 60 mins in presence of PSAT1, PSPH by resazurin based diaphorase coupled assay
Details: not given

Row | SMILES | IC50
9 | CN(c1ncccn1)S(=O)(=O)c1ccc(NC(=O)c2cc(-c3ccccc3)n[nH]2)cc1 | > 100 µM
10 | O=C(Nc1ccc(S(=O)(=O)Nc2ncccn2)cc1)c1cc(-c2ccccc2C(=O)O)n[nH]1 | > 100 µM
11 | O=C(c1cc(-c2ccccc2)n[nH]1)N1CCC2C=C(S(=O)(=O)Nc3ncccn3)C=CC21 (stereo not drawn) | > 100 µM
12 | O=C(Nc1ccc(S(=O)(=O)Nc2ncccn2)cc1)c1cc(-c2ccccc2)on1 | > 100 µM
13 | O=C(Nc1ccc(S(=O)(=O)Nc2ncccn2)cc1)c1cc(-c2ccccc2F)n[nH]1 | < 50 µM
14 | O=C(Nc1ccc(S(=O)(=O)Nc2ncccn2)cc1)c1cc(-c2ccccc2O)n[nH]1 | < 50 µM
15 | O=C(Nc1ccc(S(=O)(=O)Nc2ncccn2)cc1)c1cc(-c2ccccc2)nn1-c1ccccc1 | > 100 µM
16 | O=C(Nc1ccc(S(=O)(=O)Nc2ncccn2)cc1)c1cc(-c2ccccc2)n[nH]1 | < 50 µM
17 | COc1ccccc1-c1cc(C(=O)Nc2ccc(S(=O)(=O)Nc3ncccn3)cc2)[nH]n1 | < 50 µM
18 | O=C(Nc1ccc(S(=O)(=O)Nc2ncccn2)cc1)c1cc(-c2ccccc2)no1 | > 100 µM
19 | O=C(Nc1ccc(S(=O)(=O)Nc2ccccn2)cc1)c1cc(-c2ccccc2)n[nH]1 | 50 to 100 µM
20 | O=C(Nc1ccc(S(=O)(=O)NCCCN2CCOCC2)cc1)c1cc(-c2ccccc2O)n[nH]1 | > 100 µM
21 | O=C(Nc1ccc(S(=O)(=O)Nc2ccccn2)cc1)c1cc(-c2ccccc2O)n[nH]1 | > 100 µM
22 | NS(=O)(=O)c1ccc(NC(=O)c2cc(-c3ccccc3O)[nH]n2)cc1 | > 100 µM
23 | O=C(Nc1ccc(S(=O)(=O)N2CCCCC2)cc1)c1cc(-c2ccccc2O)n[nH]1 | > 100 µM
24 | Cc1ccnc(NS(=O)(=O)c2ccc(NC(=O)c3cc(-c4ccccc4O)n[nH]3)cc2)n1 | < 50 µM
25 | Cn1nc(-c2ccccc2)cc1C(=O)Nc1ccc(S(=O)(=O)Nc2ncccn2)cc1 | < 50 µM
26 | Cc1c(-c2ccccc2)n[nH]c1C(=O)Nc1ccc(S(=O)(=O)Nc2ncccn2)cc1 | > 100 µM
27 | Cc1cc(C)nc(NS(=O)(=O)c2ccc(NC(=O)c3cc(-c4ccccc4)n[nH]3)cc2)n1 | < 50 µM
28 | Nc1ncccc1-c1cc(C(=O)Nc2ccc(S(=O)(=O)Nc3ncccn3)cc2)[nH]n1 | > 100 µM
29 | O=C(Nc1ccc(S(=O)(=O)NCc2ccco2)cc1)c1cc(-c2ccccc2O)n[nH]1 | > 100 µM
30 | CN(c1ncccn1)S(=O)(=O)c1ccc(NC(=O)c2cc(-c3ccccc3O)n[nH]2)cc1 | > 100 µM

System: not listed separately
Experiment: Solubility of the compound
Assay type: physicochemical
Details: not given

Row | SMILES | solubility
31 | O=C(COc1cc2[nH]c(C(=O)N[C@H](CO)c3ccc(C(=O)O)cc3)cc2cc1Cl)NCCO | 973 µM (≈ 463 µg/mL)

Molecular target: T2, D-3-phosphoglycerate dehydrogenase
Details: not given

Row | SMILES | IC50
32 | Cc1cc(C)nc(NC(=S)N2CCN(c3cccc(C(F)(F)F)c3)CC2)c1 | 6.5 µM
33 | Cc1cccc(NC(=S)N2CCN(c3cccc(C(F)(F)F)c3)CC2)c1 | > 57 µM
